The values that follow come from ChEMBL document CHEMBL5678818, “Discovery of potent SOS1 inhibitors that block RAS activation via disruption of the RAS-SOS1 interaction” (Proc Natl Acad Sci U S A, 2019).

Assay [1] concerns the target T1, SNF-related serine/threonine-protein kinase (Homo sapiens) (UniProt Q9NRH2).
T1 sequence (whole entry): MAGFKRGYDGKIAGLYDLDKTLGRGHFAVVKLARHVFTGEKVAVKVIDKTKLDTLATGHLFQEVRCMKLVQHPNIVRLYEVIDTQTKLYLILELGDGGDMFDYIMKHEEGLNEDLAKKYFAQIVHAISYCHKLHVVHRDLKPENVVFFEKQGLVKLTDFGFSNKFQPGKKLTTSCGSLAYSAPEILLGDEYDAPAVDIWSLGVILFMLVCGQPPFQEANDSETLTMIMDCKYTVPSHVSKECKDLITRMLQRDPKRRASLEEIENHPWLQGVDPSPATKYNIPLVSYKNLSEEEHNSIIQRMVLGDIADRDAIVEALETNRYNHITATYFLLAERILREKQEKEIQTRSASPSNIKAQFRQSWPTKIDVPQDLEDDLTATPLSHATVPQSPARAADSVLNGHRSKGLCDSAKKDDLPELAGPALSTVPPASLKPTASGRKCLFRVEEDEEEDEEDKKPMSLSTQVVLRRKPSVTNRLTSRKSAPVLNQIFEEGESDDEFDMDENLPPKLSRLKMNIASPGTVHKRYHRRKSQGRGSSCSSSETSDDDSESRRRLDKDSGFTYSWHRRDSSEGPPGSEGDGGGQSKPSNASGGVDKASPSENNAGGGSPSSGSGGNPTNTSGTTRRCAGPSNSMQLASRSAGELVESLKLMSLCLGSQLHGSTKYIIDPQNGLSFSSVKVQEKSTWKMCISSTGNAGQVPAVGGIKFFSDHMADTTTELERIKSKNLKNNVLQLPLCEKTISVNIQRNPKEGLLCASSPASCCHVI
The experiment in a line: Inhibition of SNRK (unknown origin) assessed as residual activity at 100 nM by KINOMEscan analysis relative to control.

In assay [2] the target is Tyrosine-protein kinase receptor Tie-1 (Homo sapiens) (UniProt P35590). The experiment in a line: Inhibition of TIE1 (unknown origin) assessed as residual activity at 100 nM by KINOMEscan analysis relative to control.
Chain of Tyrosine-protein kinase receptor Tie-1 (Homo sapiens) (P35590 whole entry): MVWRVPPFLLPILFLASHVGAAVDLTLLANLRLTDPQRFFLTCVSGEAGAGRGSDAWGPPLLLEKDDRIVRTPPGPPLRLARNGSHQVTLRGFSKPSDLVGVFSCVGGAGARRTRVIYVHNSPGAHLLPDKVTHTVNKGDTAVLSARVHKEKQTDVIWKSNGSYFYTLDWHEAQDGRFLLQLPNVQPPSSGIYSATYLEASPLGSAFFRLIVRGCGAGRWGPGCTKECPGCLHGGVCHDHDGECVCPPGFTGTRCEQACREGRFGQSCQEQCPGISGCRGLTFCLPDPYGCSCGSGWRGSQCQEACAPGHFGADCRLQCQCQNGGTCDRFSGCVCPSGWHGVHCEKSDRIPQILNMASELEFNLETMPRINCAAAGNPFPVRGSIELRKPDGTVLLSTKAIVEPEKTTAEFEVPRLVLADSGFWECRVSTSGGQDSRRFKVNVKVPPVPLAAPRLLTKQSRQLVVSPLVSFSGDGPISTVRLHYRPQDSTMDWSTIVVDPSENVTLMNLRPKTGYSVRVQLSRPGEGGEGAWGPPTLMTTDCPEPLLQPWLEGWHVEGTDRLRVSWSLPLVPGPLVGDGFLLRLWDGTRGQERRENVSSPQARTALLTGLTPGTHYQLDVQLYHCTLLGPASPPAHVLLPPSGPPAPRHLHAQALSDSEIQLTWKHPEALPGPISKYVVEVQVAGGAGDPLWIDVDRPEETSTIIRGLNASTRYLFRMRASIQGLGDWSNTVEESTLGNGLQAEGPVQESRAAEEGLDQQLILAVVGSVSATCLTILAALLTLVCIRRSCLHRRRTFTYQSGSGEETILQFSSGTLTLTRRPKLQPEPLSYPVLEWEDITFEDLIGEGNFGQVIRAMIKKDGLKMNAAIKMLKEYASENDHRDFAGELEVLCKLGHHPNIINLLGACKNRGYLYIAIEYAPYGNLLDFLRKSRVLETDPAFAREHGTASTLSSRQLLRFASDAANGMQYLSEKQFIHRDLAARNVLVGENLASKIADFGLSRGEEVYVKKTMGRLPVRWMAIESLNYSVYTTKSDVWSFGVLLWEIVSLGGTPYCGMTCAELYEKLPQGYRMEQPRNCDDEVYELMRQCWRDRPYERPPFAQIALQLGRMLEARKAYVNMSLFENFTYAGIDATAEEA
Assay [3] addresses Homeodomain-interacting protein kinase 2 (Homo sapiens) (UniProt Q9H2X6). The assay can be described thus: Inhibition of HIPK2 (unknown origin) assessed as residual activity at 100 nM by KINOMEscan analysis relative to control.
Assay [4] concerns the target Serine/threonine-protein kinase PAK 4 (Homo sapiens) (UniProt O96013). The experiment in a line: Inhibition of PAK4 (unknown origin) assessed as residual activity at 100 nM by KINOMEscan analysis relative to control.
The subject of assay [5] is Receptor-type tyrosine-protein kinase FLT3 (Homo sapiens), P36888 [N841I]. The experiment in a line: Inhibition of FLT3 N841I mutant (unknown origin) assessed as residual activity at 100 nM by KINOMEscan analysis relative to control.
In assay [6] the target is T2, Calcium/calmodulin-dependent protein kinase type IV (Homo sapiens) (UniProt Q16566).
T2 sequence (whole entry): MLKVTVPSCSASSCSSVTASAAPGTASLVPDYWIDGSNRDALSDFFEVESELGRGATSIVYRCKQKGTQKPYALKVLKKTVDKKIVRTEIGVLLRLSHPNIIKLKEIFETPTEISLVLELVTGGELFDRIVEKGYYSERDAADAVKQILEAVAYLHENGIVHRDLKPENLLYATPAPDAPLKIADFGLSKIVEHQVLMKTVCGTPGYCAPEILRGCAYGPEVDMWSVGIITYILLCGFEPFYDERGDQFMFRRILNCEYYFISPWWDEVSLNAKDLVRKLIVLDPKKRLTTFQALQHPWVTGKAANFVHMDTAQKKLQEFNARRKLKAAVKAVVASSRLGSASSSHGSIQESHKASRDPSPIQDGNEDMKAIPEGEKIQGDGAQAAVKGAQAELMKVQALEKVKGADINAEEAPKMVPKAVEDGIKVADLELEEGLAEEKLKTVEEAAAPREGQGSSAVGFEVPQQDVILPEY
The assay can be described thus: Inhibition of CAMK4 (unknown origin) assessed as residual activity at 100 nM by KINOMEscan analysis relative to control.

Assay [7] deals with T3, Dual specificity mitogen-activated protein kinase kinase 7 (Homo sapiens) (UniProt O14733).
T3 sequence (whole entry): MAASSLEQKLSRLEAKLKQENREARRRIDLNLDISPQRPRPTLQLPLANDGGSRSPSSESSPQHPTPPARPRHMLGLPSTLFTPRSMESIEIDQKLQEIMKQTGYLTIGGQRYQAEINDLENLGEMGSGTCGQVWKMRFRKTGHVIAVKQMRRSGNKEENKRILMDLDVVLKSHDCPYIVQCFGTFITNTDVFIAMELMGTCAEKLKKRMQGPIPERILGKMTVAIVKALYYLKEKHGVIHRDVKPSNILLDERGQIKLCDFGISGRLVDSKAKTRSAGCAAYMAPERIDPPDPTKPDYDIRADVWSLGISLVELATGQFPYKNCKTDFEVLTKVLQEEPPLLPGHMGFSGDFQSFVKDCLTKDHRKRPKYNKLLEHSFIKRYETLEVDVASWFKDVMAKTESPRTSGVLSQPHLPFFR
The experiment in a line: Inhibition of MKK7 (unknown origin) assessed as residual activity at 100 nM by KINOMEscan analysis relative to control.

Assay [8] deals with Dual specificity mitogen-activated protein kinase kinase 1 (Homo sapiens) (UniProt Q02750). The assay can be described thus: Inhibition of MEK1 (unknown origin) assessed as residual activity at 100 nM by KINOMEscan analysis relative to control.
Assay [9] concerns Epidermal growth factor receptor (Homo sapiens), P00533 [UNDEFINED MUTATION]. The experiment in a line: Inhibition of EGFR E746-A750del mutant (unknown origin) assessed as residual activity at 100 nM by KINOMEscan analysis relative to control.
Chain of Epidermal growth factor receptor (Homo sapiens), P00533 [UNDEFINED MUTATION] (P00533 whole entry, looked up, stated change not applied): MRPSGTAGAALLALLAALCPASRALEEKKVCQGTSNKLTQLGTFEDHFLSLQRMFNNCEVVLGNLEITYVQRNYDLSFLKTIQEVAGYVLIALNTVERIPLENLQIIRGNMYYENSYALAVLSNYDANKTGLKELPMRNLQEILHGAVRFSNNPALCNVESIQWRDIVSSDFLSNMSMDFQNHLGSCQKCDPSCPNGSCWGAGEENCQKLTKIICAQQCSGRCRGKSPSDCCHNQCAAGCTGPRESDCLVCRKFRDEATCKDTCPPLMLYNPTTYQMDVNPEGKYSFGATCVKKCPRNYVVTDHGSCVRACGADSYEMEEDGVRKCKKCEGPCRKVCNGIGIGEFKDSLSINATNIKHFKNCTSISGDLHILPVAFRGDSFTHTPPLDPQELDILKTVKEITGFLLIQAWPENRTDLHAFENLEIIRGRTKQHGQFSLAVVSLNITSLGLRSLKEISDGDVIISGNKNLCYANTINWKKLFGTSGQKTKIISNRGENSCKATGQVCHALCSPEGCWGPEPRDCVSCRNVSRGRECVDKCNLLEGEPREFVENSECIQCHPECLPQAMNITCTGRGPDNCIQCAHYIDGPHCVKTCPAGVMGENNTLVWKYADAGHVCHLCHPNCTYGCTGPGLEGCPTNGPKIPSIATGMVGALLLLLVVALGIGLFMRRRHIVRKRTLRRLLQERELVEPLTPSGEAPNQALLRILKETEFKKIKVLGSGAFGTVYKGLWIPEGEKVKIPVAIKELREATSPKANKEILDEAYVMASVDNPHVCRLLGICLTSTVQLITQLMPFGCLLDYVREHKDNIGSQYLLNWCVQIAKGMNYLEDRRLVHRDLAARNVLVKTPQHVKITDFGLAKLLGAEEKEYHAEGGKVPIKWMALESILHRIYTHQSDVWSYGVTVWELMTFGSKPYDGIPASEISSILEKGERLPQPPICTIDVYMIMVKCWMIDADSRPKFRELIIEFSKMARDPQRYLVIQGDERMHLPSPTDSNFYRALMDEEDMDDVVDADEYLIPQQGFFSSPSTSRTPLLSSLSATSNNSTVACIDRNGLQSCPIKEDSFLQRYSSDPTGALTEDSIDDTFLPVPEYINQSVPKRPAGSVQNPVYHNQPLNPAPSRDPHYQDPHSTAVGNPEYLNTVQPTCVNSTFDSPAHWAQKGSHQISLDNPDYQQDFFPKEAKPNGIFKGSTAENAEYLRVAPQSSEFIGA
In assay [10] the target is Tyrosine-protein kinase HCK (Homo sapiens) (UniProt P08631). The experiment in a line: Inhibition of HCK (unknown origin) assessed as residual activity at 100 nM by KINOMEscan analysis relative to control.
Chain of Tyrosine-protein kinase HCK (Homo sapiens) (P08631 2-526 limits assumed): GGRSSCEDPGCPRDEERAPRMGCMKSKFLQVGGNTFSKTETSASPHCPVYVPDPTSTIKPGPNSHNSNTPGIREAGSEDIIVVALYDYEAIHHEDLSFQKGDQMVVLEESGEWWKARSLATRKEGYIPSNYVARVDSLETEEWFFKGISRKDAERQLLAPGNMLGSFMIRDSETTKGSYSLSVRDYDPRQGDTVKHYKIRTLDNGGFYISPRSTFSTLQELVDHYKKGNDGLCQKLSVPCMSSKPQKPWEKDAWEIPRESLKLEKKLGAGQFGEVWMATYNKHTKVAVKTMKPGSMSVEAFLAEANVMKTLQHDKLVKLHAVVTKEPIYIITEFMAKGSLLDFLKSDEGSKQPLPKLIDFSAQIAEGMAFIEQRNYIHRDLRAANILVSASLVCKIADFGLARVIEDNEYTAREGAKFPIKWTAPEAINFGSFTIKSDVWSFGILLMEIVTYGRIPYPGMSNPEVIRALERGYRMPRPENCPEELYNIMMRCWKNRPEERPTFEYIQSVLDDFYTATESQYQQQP
Assay [11] has as its target Dual specificity tyrosine-phosphorylation-regulated kinase 1A (Homo sapiens) (UniProt Q13627). The assay can be described thus: Inhibition of DYRK1A (unknown origin) assessed as residual activity at 100 nM by KINOMEscan analysis relative to control.
The target in assay [12] is Cyclin-dependent kinase-like 1 (Homo sapiens) (UniProt Q00532). The assay can be described thus: Inhibition of CDKL1 (unknown origin) assessed as residual activity at 100 nM by KINOMEscan analysis relative to control.
Chain of Cyclin-dependent kinase-like 1 (Homo sapiens) (Q00532 whole entry): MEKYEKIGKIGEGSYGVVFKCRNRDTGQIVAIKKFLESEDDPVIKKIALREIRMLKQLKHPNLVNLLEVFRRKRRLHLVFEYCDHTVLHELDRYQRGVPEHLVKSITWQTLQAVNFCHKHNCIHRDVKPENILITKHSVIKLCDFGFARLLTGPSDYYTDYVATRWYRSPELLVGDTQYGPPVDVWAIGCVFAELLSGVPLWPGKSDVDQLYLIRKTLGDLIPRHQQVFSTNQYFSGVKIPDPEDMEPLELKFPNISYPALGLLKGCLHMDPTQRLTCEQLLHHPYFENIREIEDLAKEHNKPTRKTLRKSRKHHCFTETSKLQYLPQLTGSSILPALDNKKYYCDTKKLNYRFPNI
Assay [13] concerns the target Cyclin-dependent kinase 4/cyclin D1 (Homo sapiens) (UniProt P11802+P24385). The experiment in a line: Inhibition of CDK4-cyclin D1 (unknown origin) assessed as residual activity at 100 nM by KINOMEscan analysis relative to control. The assay is classed as protein-complex assay.

Chain of Homeodomain-interacting protein kinase 2 (Homo sapiens) (Q9H2X6 whole entry, looked up): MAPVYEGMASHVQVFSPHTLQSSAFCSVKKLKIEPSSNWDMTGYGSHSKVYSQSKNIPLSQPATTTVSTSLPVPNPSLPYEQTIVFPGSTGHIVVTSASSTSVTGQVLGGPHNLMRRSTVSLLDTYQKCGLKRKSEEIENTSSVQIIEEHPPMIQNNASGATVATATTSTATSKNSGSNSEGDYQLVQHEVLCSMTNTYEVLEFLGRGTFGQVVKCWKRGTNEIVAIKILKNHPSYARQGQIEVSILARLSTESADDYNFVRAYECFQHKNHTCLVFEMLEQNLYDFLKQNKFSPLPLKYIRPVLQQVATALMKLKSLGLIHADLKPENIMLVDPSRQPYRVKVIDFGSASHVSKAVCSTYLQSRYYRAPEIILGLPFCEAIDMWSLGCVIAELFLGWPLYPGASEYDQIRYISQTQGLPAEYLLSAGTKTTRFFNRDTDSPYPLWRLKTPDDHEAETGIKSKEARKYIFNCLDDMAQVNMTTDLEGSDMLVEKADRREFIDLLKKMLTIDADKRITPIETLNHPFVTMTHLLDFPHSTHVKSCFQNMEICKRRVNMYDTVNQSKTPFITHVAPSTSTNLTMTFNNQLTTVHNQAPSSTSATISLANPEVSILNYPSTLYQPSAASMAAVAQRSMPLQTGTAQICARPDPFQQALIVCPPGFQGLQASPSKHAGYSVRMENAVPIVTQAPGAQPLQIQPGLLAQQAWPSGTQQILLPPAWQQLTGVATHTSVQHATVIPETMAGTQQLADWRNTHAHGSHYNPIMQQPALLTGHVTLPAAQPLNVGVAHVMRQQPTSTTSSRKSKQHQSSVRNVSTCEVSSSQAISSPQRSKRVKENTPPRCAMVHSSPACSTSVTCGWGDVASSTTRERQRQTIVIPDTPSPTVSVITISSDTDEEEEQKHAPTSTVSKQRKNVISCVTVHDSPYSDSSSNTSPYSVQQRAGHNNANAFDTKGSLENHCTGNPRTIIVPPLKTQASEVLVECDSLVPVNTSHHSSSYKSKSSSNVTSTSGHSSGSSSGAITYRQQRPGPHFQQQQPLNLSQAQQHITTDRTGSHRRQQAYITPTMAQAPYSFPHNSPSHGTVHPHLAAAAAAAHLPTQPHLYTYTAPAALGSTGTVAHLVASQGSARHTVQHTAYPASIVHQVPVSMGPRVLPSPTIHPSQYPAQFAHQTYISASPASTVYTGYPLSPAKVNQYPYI
Chain of Serine/threonine-protein kinase PAK 4 (Homo sapiens) (O96013 whole entry, looked up): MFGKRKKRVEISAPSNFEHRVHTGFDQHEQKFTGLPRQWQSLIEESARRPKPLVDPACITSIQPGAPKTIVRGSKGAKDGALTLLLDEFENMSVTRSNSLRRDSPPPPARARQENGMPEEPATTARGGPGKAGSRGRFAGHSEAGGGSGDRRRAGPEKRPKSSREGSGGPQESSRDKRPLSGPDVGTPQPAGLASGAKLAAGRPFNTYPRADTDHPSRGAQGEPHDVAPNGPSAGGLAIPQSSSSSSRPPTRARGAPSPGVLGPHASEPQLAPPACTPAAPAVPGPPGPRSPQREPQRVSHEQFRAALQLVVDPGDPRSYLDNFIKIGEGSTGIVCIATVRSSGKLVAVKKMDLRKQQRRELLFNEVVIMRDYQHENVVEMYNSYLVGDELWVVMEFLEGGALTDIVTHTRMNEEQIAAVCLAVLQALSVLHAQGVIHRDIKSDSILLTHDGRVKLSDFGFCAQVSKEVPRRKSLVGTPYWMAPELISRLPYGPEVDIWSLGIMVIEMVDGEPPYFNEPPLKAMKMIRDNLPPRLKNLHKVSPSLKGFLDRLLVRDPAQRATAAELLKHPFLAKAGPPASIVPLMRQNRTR

Take `COc1cc2ncnc(N[C@H](C)c3cccc4ccccc34)c2cc1OC`: the Activity in [1] was 74%; in [2], 85%; in [3], 93%; in [4] it was 87%; in assay [5], 100%; in assay [6] it was 100%. The Activity in assay [7] came out at 77%; in assay [8] it was 98%; in assay [9], 88%; in assay [10], 88%; in assay [11], 90%; in assay [12], 70%. Further, the Activity in assay [13] amounted to 92%.
